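Growth conditions: 96-well plates. Treatment: test compound, 48 hours, 5 concentrations. Analysis: linear interpolation between bracketing concentrations; unreached endpoints set to highest concentration. The concentration for 50% growth inhibition is given as GI50. TGI marks complete inhibition of growth.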
Tests used:
Assay in all cases: NCI-60 cell line screen, 48 h
[1] = system: OVCAR-4 ovarian
[2] = system: T-47D breast
[3] = system: SF-268 CNS
[4] = system: SNB-19 CNS
[5] = system: SK-OV-3 ovarian
[6] = system: SNB-75 CNS
[7] = system: CCRF-CEM leukemia
[8] = system: NCI-H226 lung
[9] = system: BT-549 breast
[10] = system: HOP-62 NSCLC
[11] = system: MALME-3M melanoma
[12] = system: HCT-116 colon
[13] = system: MCF7 breast
[14] = system: A498 renal
[15] = system: SK-MEL-2 melanoma
[16] = system: SR leukemia
[17] = system: A549 NSCLC
[18] = system: NCI/ADR-RES ovarian
[19] = system: SW-620 colon
[20] = system: IGROV1 ovarian
[21] = system: SF-295 CNS
[22] = system: SK-MEL-28 melanoma
[23] = system: ACHN renal
[24] = system: K-562 leukemia
[25] = system: 786-0 renal
[26] = system: OVCAR-8 ovarian
[27] = system: OVCAR-5 ovarian
[28] = system: COLO 205 colon
[29] = system: NCI-H23 lung
[30] = system: HCT-15 colon
[31] = system: RXF 393 renal
[32] = system: OVCAR-3 ovarian
[33] = system: U251 CNS
[34] = system: KM12 colon
[35] = system: NCI-H522 lung
[36] = system: HCC-2998 colon
[37] = system: UACC-62 melanoma
[38] = system: MDA-MB-231 breast
[39] = system: RPMI-8226 leukemia
[40] = system: M14 melanoma
[41] = system: UACC-257 melanoma
[42] = system: SN12C renal
[43] = system: CAKI-1 renal
[44] = system: HS 578T breast
[45] = system: PC-3 prostate
[46] = system: TK-10 renal
[47] = system: MDA-N
[48] = system: SF-539 CNS
[49] = system: SK-MEL-5 melanoma
[50] = system: DU-145 prostate
[51] = system: HL-60(TB) leukemia
[52] = system: MDA-MB-435
[53] = system: UO-31 renal
[54] = system: HOP-92 NSCLC
[55] = system: MOLT-4 leukemia
[56] = system: HT29 colon
[57] = system: NCI-H460 lung
[58] = system: EKVX NSCLC
[59] = system: LOX IMVI melanoma
[60] = system: DMS 114 small cell lung
[61] = system: KM20L2 colon
[62] = system: DLD-1 colon
[63] = system: HOP-18 NSCLC
[64] = system: DMS 273 small cell lung
[65] = system: SNB-78 CNS
[66] = system: M19-MEL melanoma

`COc1ccc(CN=C2Nc3ccncc3S(=O)(=O)N2c2ccccc2)cc1` gave a TGI [1] of over 100 µM, a TGI [2] of over 100 µM and a TGI [3] of over 100 µM. For the same compound, the TGI [4] was over 100 µM, the TGI [5] was over 100 µM and the TGI [6] was over 100 µM. It also gave a TGI [7] of 82.4 µM, a TGI [8] of over 100 µM and a TGI [9] of 89.4 µM. It also gave a TGI [10] of over 100 µM, a TGI [11] of over 100 µM and a TGI [12] of over 100 µM. It also gave a TGI [13] of over 100 µM, a TGI [14] of over 100 µM and a TGI [15] of over 100 µM. The TGI [16] was 73.3 µM, the TGI [17] was over 100 µM and the TGI [18] was over 100 µM. The TGI [19] was over 100 µM, the TGI [20] was over 100 µM and the TGI [21] was over 100 µM. The TGI [22] was 87.6 µM, the TGI [23] was over 100 µM and the TGI [24] was 93.2 µM. The TGI [25] was over 100 µM, the TGI [26] was over 100 µM and the TGI [27] was over 100 µM. The TGI [28] was over 100 µM, the TGI [29] was over 100 µM and the TGI [30] was over 100 µM. The TGI [31] was over 100 µM, the TGI [32] was over 100 µM and the TGI [33] was over 100 µM. It also gave a TGI [34] of over 100 µM, a TGI [35] of over 100 µM and a TGI [36] of 54.9 µM. For the same compound, the TGI [37] was over 100 µM, the TGI [38] was over 100 µM and the TGI [39] was 42.3 µM. The TGI [40] was over 100 µM, the TGI [41] was over 100 µM and the TGI [42] was over 100 µM. It also gave a TGI [43] of over 100 µM, a TGI [44] of over 100 µM and a TGI [45] of over 100 µM. The TGI [46] was 59.9 µM, the TGI [47] was over 100 µM and the TGI [48] was 33.9 µM. For the same compound, the TGI [49] was 47.2 µM, the TGI [50] was over 100 µM and the TGI [51] was 36.8 µM. The TGI [52] was 80.7 µM, the TGI [53] was over 100 µM and the TGI [54] was over 100 µM. For the same compound, the TGI [55] was 44.7 µM, the TGI [56] was over 100 µM and the TGI [57] was over 100 µM. For the same compound, the TGI [58] was over 100 µM and the TGI [59] was over 100 µM.

`CC[O-].CC[O-].O=Nc1ccc2cc([O-])ccc2c1.O=Nc1ccc2cc([O-])ccc2c1.[Ti+4]` showed a GI50 [1] of 1.76 µM, a TGI [1] of 3.2 µM and a GI50 [60] of 1.95 µM. For the same compound, the TGI [60] was 6.06 µM, the GI50 [3] was 2.29 µM and the TGI [3] was 5.78 µM. The GI50 [4] was 3.61 µM, the TGI [4] was 13.2 µM and the GI50 [5] was 14.6 µM. For the same compound, the TGI [5] was 20 µM, the GI50 [7] was 2.71 µM and the TGI [7] was over 27.3 µM. It also gave a GI50 [8] of 1.67 µM, a TGI [8] of 3.86 µM and a GI50 [10] of 3.3 µM. For the same compound, the TGI [10] was 10.5 µM, the GI50 [11] was 1.69 µM and the TGI [11] was 3.06 µM. For the same compound, the GI50 [12] was 1.77 µM, the TGI [12] was 3.22 µM and the GI50 [14] was 9.01 µM. The TGI [14] was 27.3 µM, the GI50 [15] was 2.13 µM and the TGI [15] was 4.75 µM. The GI50 [16] was 0.0107 µM, the TGI [16] was 2.95 µM and the GI50 [17] was 2.14 µM. For the same compound, the TGI [17] was 4.85 µM, the GI50 [19] was 1.97 µM and the TGI [19] was 4.06 µM. It also gave a GI50 [21] of 1.8 µM, a TGI [21] of 10.5 µM and a GI50 [22] of 1.81 µM. For the same compound, the TGI [22] was 3.4 µM, the GI50 [23] was 1.58 µM and the TGI [23] was 2.96 µM. For the same compound, the GI50 [24] was 2.85 µM, the TGI [24] was over 100 µM and the GI50 [25] was 1.61 µM. For the same compound, the TGI [25] was 3.05 µM, the GI50 [26] was 1.47 µM and the TGI [26] was 3.28 µM. It also gave a GI50 [27] of 2.36 µM, a TGI [27] of 3.84 µM and a GI50 [28] of 2.2 µM. For the same compound, the TGI [28] was 6.54 µM, the GI50 [29] was 1.46 µM and the TGI [29] was 3.19 µM. For the same compound, the GI50 [32] was 1.44 µM, the TGI [32] was 3.82 µM and the GI50 [33] was 1.77 µM. It also gave a TGI [33] of 3.48 µM, a GI50 [34] of 1.94 µM and a TGI [34] of 4.65 µM. It also gave a GI50 [36] of 3.3 µM, a TGI [36] of 14.2 µM and a GI50 [37] of 2.44 µM. For the same compound, the GI50 [61] was 2.83 µM, the TGI [61] was 8.22 µM and the GI50 [39] was 1.51 µM. The TGI [39] was 4.6 µM, the GI50 [62] was 2.45 µM and the TGI [62] was over 21.9 µM. The GI50 [41] was 1.61 µM, the TGI [41] was 3.14 µM and the GI50 [42] was 1.74 µM. It also gave a TGI [42] of 3.16 µM, a GI50 [43] of 3.76 µM and a TGI [43] of 12.2 µM. For the same compound, the GI50 [63] was 1.49 µM, the TGI [63] was 2.82 µM and the GI50 [46] was 3.67 µM. The TGI [46] was 8.17 µM, the GI50 [48] was 1.82 µM and the TGI [48] was 3.28 µM. The GI50 [51] was 1.2 µM, the TGI [51] was 3.71 µM and the GI50 [64] was 1.68 µM. For the same compound, the TGI [64] was 3.11 µM, the GI50 [53] was 1.78 µM and the TGI [53] was 3.63 µM. It also gave a GI50 [54] of 1.96 µM, a TGI [54] of 6.1 µM and a GI50 [65] of 2.79 µM. It also gave a GI50 [57] of 3.1 µM, a TGI [57] of over 100 µM and a GI50 [66] of 0.728 µM. For the same compound, the TGI [66] was 3.25 µM, the GI50 [58] was 3.77 µM and the TGI [58] was 11.8 µM. For the same compound, the GI50 [59] was 1.66 µM and the TGI [59] was 4.14 µM.

`O=C(c1ccco1)N1CCN(C(=O)c2ccco2)C1=S` gave a TGI [1] of 35.2 µM, a TGI [2] of 27.8 µM and a TGI [3] of 21.8 µM. For the same compound, the TGI [4] was over 79.5 µM, the TGI [5] was 40.8 µM and the TGI [6] was 26.2 µM. For the same compound, the TGI [7] was 5.7 µM, the TGI [8] was 51.5 µM and the TGI [9] was 33.9 µM. The TGI [10] was 33.1 µM, the TGI [11] was 23 µM and the TGI [12] was 23.2 µM. It also gave a TGI [13] of 11 µM, a GI50 [14] of 16.6 µM and a TGI [14] of 35.8 µM. For the same compound, the TGI [15] was 31 µM, the TGI [16] was 12.1 µM and the TGI [17] was 35.5 µM. The TGI [18] was over 79.7 µM, the TGI [19] was 24.7 µM and the TGI [20] was 27.4 µM. It also gave a TGI [21] of 35.8 µM, a TGI [22] of 22.8 µM and a TGI [23] of 22.3 µM. For the same compound, the TGI [24] was 16.5 µM, the TGI [25] was 12.8 µM and the TGI [26] was 62.5 µM. The TGI [27] was 39.8 µM, the TGI [28] was 21.2 µM and the TGI [29] was 50.3 µM. The TGI [30] was 26.3 µM, the TGI [31] was 12 µM and the TGI [32] was 11.6 µM. The TGI [33] was 24 µM, the TGI [34] was 15 µM and the TGI [35] was 19.4 µM. For the same compound, the TGI [36] was 25.7 µM, the TGI [37] was 19.1 µM and the TGI [38] was 25.4 µM. For the same compound, the TGI [39] was 7.31 µM, the TGI [40] was 40.5 µM and the TGI [41] was 23.3 µM. For the same compound, the TGI [42] was 16.4 µM, the TGI [43] was 16.7 µM and the TGI [44] was over 100 µM. For the same compound, the TGI [45] was 17.5 µM, the TGI [46] was 19.8 µM and the TGI [47] was 22.6 µM. It also gave a TGI [48] of 11.2 µM, a TGI [49] of 25.1 µM and a TGI [50] of 7.99 µM. It also gave a TGI [51] of 7.16 µM, a TGI [52] of 14.1 µM and a TGI [53] of 10.1 µM. The TGI [54] was 23.6 µM, the TGI [55] was 24.5 µM and the TGI [56] was 24.2 µM. For the same compound, the TGI [57] was 30 µM, the TGI [58] was 36.7 µM and the TGI [59] was 14.9 µM.

Reference: PubChem BioAssay (NCI)
